In brackets after ≈: the same amount, converted by molar mass. Read-outs that look alike come from different tables or passages of the source. One block for each molecule: values may come before it.
What was measured:
[1] = High Throughput Metabolic Stability Panel, mouse liver microsomes
[2] = system: TALL1 Human T-cell acute lymphoblastic leukemia; assay: Human tumor xenograft in mice: TALL1; type: in vivo; conditions: FIG. 1; dosed intravenously QD×3, weekly×3; Compound A 3 mg/kg; Example 12 1.5, 3, 6 mg/kg; active = TGI≧50%
[3] = Solution Stability Assay; type: physicochemical
Description: Acetonitrile Stock Solution: Acetonitrile Stock Solution of the prodrug was prepared by dissolving 1.5-2.0 mg of weighted compound in 5.0 mL of acetonitrile in a 5 mL volumetric flask.
pH 6.5 Buffer Working Solution: A pH 6.5 Buffer Working Solution of drug was prepared by adding 1.5 mL of the Acetonitrile Stock Solution to 3.5 mL of stability buffer (50 mM potassium phosphate, pH 6.5) in a 10 mL vial, and mixing. Using a 3 mL syringe, ˜3 mL of solution was withdrawn and filtered using the Gelman 0.45 μm syringe filter into a clean 1.5 mL LC vial. This filtered solution will was used to evaluate the prodrug degradation throughout the course of the study. Target concentration: 90-120 μg/mL (70% Aqueous: 30% Acetonitrile)
pH 4.0 Acidic Working Solution: A pH 4.0 Working Solution of drug was prepared by adding 1.5 mL of the Acetonitrile Stock Solution to 3.5 mL of stability buffer (50 mM sodium acetate, pH 4.0) in a 10 mL vial and mixing. Using a 3 mL syringe, ˜3 mL of solution was withdrawn and filtered using the Gelman 0.45 μm syringe filter into a clean 1.5 mL LC vial. This filtered solution was used to evaluate the prodrug degradation throughout the course of the study. Target concentration: 90-120 μg/mL (70% Aqueous: 30% Acetonitrile)
Experimental Methods: Following the sample preparation procedure described above a single sample (n=1) was prepared for each pH condition. The samples were then placed in an HPLC autosampler maintained at 37° C. and samples were analyzed over a 24 h period. Prodrug remaining (%) was reported relative to the initial peak area (t=0 h). In cases where a conversion to parent half-life could be calculated, a t1/2 was generated. Confirmation of the conversion to parent from the prodrug was obtained by LCMS and HPLC analysis of the final timepoint samples.
Typical LC parameters are shown below: • HPLC System: HP1100 Series, Hewlett Packard., Heated autosampler • Analytical column: Synergi 4 u Hydro C18, 4.6 mm×5.0 cm, PHENOMENEX® • Column temperature: 40° C. • Autosampler temp: 37° C. • Flow rate: 1.0 mL/min • Injection Volume: 10 μL • Mobile Phase: A: Acetonitrile • B: 0.1% Phosphoric acid in water • Run Time: 14.0 minutes Typical LCMS parameters are shown below: • LC-MS System: Surveyor HPLC system, ThermoFinnigan LCQ Deca XP Max (Ion trap) • Analytical column: Synergi 4 u Hydro C18, 4.6 mm×5.0 cm, PHENOMENEX® • Column temperature: 40° C. • Autosampler temp: 22° C. • Flow rate: 1.0 mL/min • Injection Volume: 5 μL • Mobile Phase: A: 95% Acetonitrile/5% 20 mM Ammonium Acetate • B: 5% Acetonitrile/95% 20 mM Ammonium Acetate LCQ Parameters: • Sheath Flow Rate: 81.64 • Aux/Sweep Flow Rate: 19.01 • Current (uA): 10.89 • Voltage (kV): 5.00 • Capillary (C): 348.10 • Capillary Voltage (V): 30.44

[4] = Thermodynamic Equilibrium Aqueous Solubility Assay; type: physicochemical; conditions: thermodynamic from solid
Description: Standards Preparation: The calibration standard was prepared by accurately weighing 0.5-0.7 mg of sample in 5 ml of methanol. If the material was not fully soluble in methanol, other solvents such as DMSO or mixed solvents were used.
Test Sample Preparation: An excess amount of powder prodrug was equilibrated with 1 mL of buffer (50 mM potassium phosphate, pH 6.5 and 50 mM sodium acetate, pH 4.0) in a 2 mL glass vial. The solution was sonicated and vortexed for ˜30 seconds. The vials were shaken at 300 rpm at room temperature for 24 hrs. The exact incubation time for a specific prodrug was based on the prior aqueous stability data. If the compound was stable in the buffer up to 24 hrs, then the solubility was measured after 24 hrs, otherwise kinetic solubility data was reported. The final saturated solution was then transferred to a 1.5 mL Eppendorf tube and centrifuged for ˜2 min. at 10000 rpms. The supernatant from the saturated solution was transferred to a glass HPLC vial and the solubility was analyzed by HPLC using a four point calibration curve.

[5] = High Throughput Metabolic Stability Panel, rat microsomes; conditions: control compound values (expected ranges), 10 minutes
[6] = High Throughput Metabolic Stability Panel, dog microsomes; conditions: control compound values (expected ranges), 10 minutes
[7] = High Throughput Metabolic Stability Panel, monkey microsomes; conditions: control compound values (expected ranges), 10 minutes
[8] = potassium phosphate buffer with 30% acetonitrile, pH 6.5, read-out: Stability (t1/2, h) pH 6.5 (converted)
[9] = sodium acetate buffer with 30% acetonitrile, pH 4, read-out: Stability (t1/2, h) pH 4.0 (converted)
[10] = potassium phosphate buffer, pH 6.5, aqueous buffer, read-out: Solubility (mg/mL) pH 6.5
[11] = sodium acetate buffer, pH 4, aqueous buffer, read-out: Solubility (mg/mL) pH 4.0

SMILES: NC(=O)[C@@H](CCC(F)(F)F)[C@@H](CCC(F)(F)F)C(=O)N[C@H]1N=C(c2ccccc2)c2ccccc2NC1=O [Compound B, (2R,3S)—N-((3S)-2-Oxo-5-phenyl-2,3-dihydro-1H-1,4-benzodiazepin-3-yl)-2,3-bis(3,3,3-trifluoropropyl)succinamide]
0.5 μM MsLM (% Remaining) ([1]; 0.5 μM compound, mouse liver microsomes, ten-minute incubation, NADPH): 86% | 0.5 μM HLM (% Remaining) (0.5 μM compound, human liver microsomes, ten-minute incubation, NADPH): 88%

SMILES: CN1C(=O)[C@@H](NC(=O)[C@H](CCC(F)(F)F)[C@H](CCC(F)(F)F)C(=O)NSC[C@H](N)C(=O)O)N=C(c2ccccc2)c2ccccc21 [Example 12, S-(((2S,3R)-6,6,6-Trifluoro-3-(((3S)-1-methyl-2-oxo-5-phenyl-2,3-dihydro-1H-1,4-benzodiazepin-3-yl)carbamoyl)-2-(3,3,3-trifluoropropyl)hexanoyl)amino)-L-cysteine]
in vivo efficacy against TALL1, activity as defined by the tumor growth inhibition (TGI) [2]: active | half-life [3, 8]: 251 h | half-life [3, 9]: 376 h | solubility at 24 h [4, 10]: 0.63 mg/mL (≈ 932 µM) | solubility at 24 h [4, 11]: 0.82 mg/mL (≈ 1210 µM)

SMILES: CN1CCN(CNC(=O)[C@@H](CCC(F)(F)F)[C@@H](CCC(F)(F)F)C(=O)N[C@H]2N=C(c3ccccc3)c3ccccc3N(C)C2=O)CC1 [Example 15, (2R,3S)—N-((3S)-1-Methyl-2-oxo-5-phenyl-2,3-dihydro-1H-1,4-benzodiazepin-3-yl)-N′-((4-methyl-1-piperazinyl)methyl)-2,3-bis(3,3,3-trifluoropropyl)succinamide]
half-life [3, 8]: > 500 h | half-life [3, 9]: > 500 h | solubility at 24 h [4, 10]: > 0.41 mg/mL | solubility at 24 h [4, 11]: 0.27 mg/mL (≈ 404 µM)

SMILES: CN1C(=O)[C@@H](NC(=O)[C@H](CCC(F)(F)F)[C@H](CCC(F)(F)F)C(=O)NCN2CCCCC2)N=C(c2ccccc2)c2ccccc21 [Example 16, (2R,3S)—N-((3S)-1-Methyl-2-oxo-5-phenyl-2,3-dihydro-1H-1,4-benzodiazepin-3-yl)-N′-(1-piperidinylmethyl)-2,3-bis(3,3,3-trifluoropropyl)succinamide]
half-life [3, 8]: 16 h | half-life [3, 9]: 250 h | solubility at 24 h [4, 10]: 0.01 mg/mL (≈ 15.3 µM) | solubility at 24 h [4, 11]: 0.23 mg/mL (≈ 352 µM)

SMILES: CN1C(=O)[C@@H](NC(=O)[C@H](CCC(F)(F)F)[C@H](CCC(F)(F)F)C(=O)NCN2CCC(N)CC2)N=C(c2ccccc2)c2ccccc21 [Example 17, (2S,3R)—N-((4-Amino-1-piperidinyl)methyl)-N′-((3S)-1-methyl-2-oxo-5-phenyl-2,3-dihydro-1H-1,4-benzodiazepin-3-yl)-2,3-bis(3,3,3-trifluoropropyl)succinamide]
half-life [3, 8]: 300 h | half-life [3, 9]: 250 h | solubility at 24 h [4, 10]: > 1.9 mg/mL | solubility at 24 h [4, 11]: 0.56 mg/mL (≈ 837 µM)

SMILES: CN1C(=O)[C@@H](NC(=O)[C@H](CCC(F)(F)F)[C@H](CCC(F)(F)F)C(=O)NCN2CCC(N(C)C)CC2)N=C(c2ccccc2)c2ccccc21 [Example 18, (2S,3R)—N-((4-(Dimethylamino)-1-piperidinyl)methyl)-N′-((3S)-1-methyl-2-oxo-5-phenyl-2,3-dihydro-1H-1,4-benzodiazepin-3-yl)-2,3-bis(3,3,3-trifluoropropyl)succinamide]
half-life [3, 8]: > 500 h | half-life [3, 9]: > 500 h | solubility at 24 h [4, 10]: > 1.05 mg/mL | solubility at 24 h [4, 11]: 0.29 mg/mL (≈ 416 µM)

SMILES: CN1C(=O)[C@@H](NC(=O)[C@H](CCC(F)(F)F)[C@H](CCC(F)(F)F)C(=O)NCN2CCC(O)CC2)N=C(c2ccccc2)c2ccccc21 [Example 19, (2S,3R)—N-((4-Hydroxy-1-piperidinyl)methyl)-N′-((3S)-1-methyl-2-oxo-5-phenyl-2,3-dihydro-1H-1,4-benzodiazepin-3-yl)-2,3-bis(3,3,3-trifluoropropyl)succinamide]
half-life [3, 8]: 56 h | half-life [3, 9]: > 500 h | solubility at 24 h [4, 10]: > 1.42 mg/mL | solubility at 24 h [4, 11]: 0.97 mg/mL (≈ 1450 µM)

SMILES: CN1C(=O)[C@@H](NC(=O)[C@H](CCC(F)(F)F)[C@H](CCC(F)(F)F)C(=O)NCN2CCC(O)C2)N=C(c2ccccc2)c2ccccc21 (stereo partly drawn) [Example 20, (2S,3R)—N-((3-Hydroxy-1-pyrrolidinyl)methyl)-N′-((3S)-1-methyl-2-oxo-5-phenyl-2,3-dihydro-1H-1,4-benzodiazepin-3-yl)-2,3-bis(3,3,3-trifluoropropyl)succinamide]
half-life [3, 8]: 15 h | half-life [3, 9]: 97 h | solubility at 24 h [4, 10]: 0.39 mg/mL (≈ 595 µM) | solubility at 24 h [4, 11]: 0.43 mg/mL (≈ 656 µM)

SMILES: CN1C(=O)[C@@H](NC(=O)[C@H](CCC(F)(F)F)[C@H](CCC(F)(F)F)C(=O)NCN2CCC(N(C)C)C2)N=C(c2ccccc2)c2ccccc21 (stereo partly drawn) [Example 21, (2S,3R)—N-((3-(Dimethylamino)-1-pyrrolidinyl)methyl)-N′-((3S)-1-methyl-2-oxo-5-phenyl-2,3-dihydro-1H-1,4-benzodiazepin-3-yl)-2,3-bis(3,3,3-trifluoropropyl)succinamide]
half-life [3, 8]: 376 h | half-life [3, 9]: 334 h | solubility at 24 h [4, 10]: 0.63 mg/mL (≈ 923 µM) | solubility at 24 h [4, 11]: 0.64 mg/mL (≈ 937 µM)

SMILES: CN1C(=O)[C@@H](NC(=O)[C@H](CCC(F)(F)F)[C@H](CCC(F)(F)F)C(=O)NCN2CCCC2)N=C(c2ccccc2)c2ccccc21 [Example 22, (2R,3S)—N-((3S)-1-Methyl-2-oxo-5-phenyl-2,3-dihydro-1H-1,4-benzodiazepin-3-yl)-N′-(1-pyrrolidinylmethyl)-2,3-bis(3,3,3-trifluoropropyl)succinamide]
half-life [3, 8]: 7 h | solubility at 24 h [4, 10]: 0.03 mg/mL (≈ 46.9 µM) | solubility at 24 h [4, 11]: > 0.39 mg/mL

Average Percent Remaining ± SD, Rat [5]: 0.7 ± 0.6% | Average Percent Remaining ± SD, Mouse ([1]; control compound values (expected ranges), mouse microsomes, 10 minutes): 0.4 ± 0.3% | Average Percent Remaining ± SD, Dog [6]: 0.4 ± 0.4% | Average Percent Remaining ± SD, Human (control compound values (expected ranges), human microsomes, 10 minutes): 0.4 ± 0.4% | Average Percent Remaining ± SD, Monkey [7]: 0.6 ± 0.5%
SMILES: CCc1nn(CCCN2CCN(c3cccc(Cl)c3)CC2)c(=O)n1CCOc1ccccc1 [Nefazodone]
